According to ChEMBL document CHEMBL1201862, “PubChem BioAssay data set” (2004):
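Five concentrations, 48 hours, 96-well plates. Abbreviation: GI50, concentration required for 50% inhibition of growth.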 Active and inactive are the calls of the source. Rule as the data show it: active = GI50 up to about 1.1 µM and inactive = higher.

Assays:
Test in all cases: DTP human tumour cell line panel, 48 h
DLD-1 = tested on: DLD-1
DMS-114 = tested on: DMS-114
DMS-273 = tested on: DMS-273
HOP-18 = tested on: HOP-18
KM-20L2 = tested on: KM-20L2
LXFL 529 = tested on: LXFL 529
RXF 631 = tested on: RXF 631
SNB-78 = tested on: SNB-78
XF498 = tested on: XF498

Measured: GI50

Nc1ccn([C@@H]2C[C@H](CO)[C@@H](O)[C@H]2O)c(=O)n1
inactive: DLD-1 > 57.7 µM | DMS-114 > 57.7 µM | DMS-273 > 57.7 µM | HOP-18 > 57.7 µM | KM-20L2 > 57.7 µM | LXFL 529 > 57.7 µM | RXF 631 > 57.7 µM | SNB-78 > 57.7 µM

COc1ccc2c(c1)CCc1c-2nc2cc3c(cc2c1O)OCO3
inactive: DLD-1 > 100 µM | DMS-273 > 100 µM | HOP-18 > 100 µM | KM-20L2 > 100 µM | LXFL 529 > 100 µM | SNB-78 > 100 µM | XF498 > 100 µM

O=c1c(-c2ccccc2)c(O)nc2[nH]c3ccccc3n12
inactive: DLD-1 > 100 µM | DMS-114 > 100 µM | DMS-273 > 100 µM | HOP-18 > 100 µM | KM-20L2 > 100 µM | LXFL 529 > 100 µM | RXF 631 > 100 µM | SNB-78 > 100 µM | XF498 > 100 µM

Cc1cccc2c1N(C(=O)/C=C\C(=O)O)C(c1c(C)[nH]c3ccccc13)C2 (centres undefined)
inactive: DLD-1 33.6 µM | DMS-114 19.9 µM | KM-20L2 > 100 µM | LXFL 529 15.3 µM | SNB-78 31.2 µM | XF498 21.9 µM

COc1cc(Nc2cnc3ccc(C(F)(F)F)cc3n2)cc(OC)c1OC
inactive: DMS-273 25.5 µM | HOP-18 > 100 µM | KM-20L2 3.79 µM | LXFL 529 27.4 µM | SNB-78 > 100 µM

COC(=O)CSc1nnc(-c2ccc(O)c([N+](=O)[O-])c2)[nH]1
inactive: DLD-1 > 100 µM | DMS-273 > 100 µM | KM-20L2 > 100 µM | LXFL 529 > 100 µM | RXF 631 > 100 µM | XF498 > 100 µM

CNS(=O)(=O)NNS(=O)(=O)c1ccc(Br)cc1
inactive: DLD-1 > 100 µM | DMS-114 > 100 µM | DMS-273 > 100 µM | HOP-18 2.64 µM | KM-20L2 > 100 µM | LXFL 529 > 100 µM | RXF 631 > 100 µM | SNB-78 > 100 µM | XF498 > 100 µM

COc1ccc(OC)c2[s+]snc12
inactive: DLD-1 49.5 µM | DMS-273 > 100 µM | KM-20L2 > 100 µM | LXFL 529 35.6 µM | RXF 631 > 100 µM | SNB-78 > 100 µM | XF498 45.3 µM

O=C(NC12CC3CC(CC(C3)C1)C2)C(=O)c1c[nH]c2ccc(Br)cc12
inactive: DLD-1 13.4 µM | DMS-114 65.9 µM | DMS-273 4.54 µM | HOP-18 19.1 µM | KM-20L2 4.54 µM | LXFL 529 15.5 µM | SNB-78 35.7 µM

COc1cc2c(c(OC)c1OC)-c1ccc(OC)c(=O)cc1C(NC(=O)c1ccc(N=[N+]=[N-])cc1)CC2 (centres undefined)
active: DLD-1 0.0413 µM | DMS-114 0.0257 µM | DMS-273 0.0244 µM | KM-20L2 0.0188 µM | LXFL 529 0.0372 µM | SNB-78 0.03 µM
inactive: HOP-18 > 84.9 µM

CC1CCSC(N(C(=O)N(C)c2ccccc2)c2ccccc2)=N1 (centres undefined)
inactive: DLD-1 > 100 µM | DMS-114 > 100 µM | DMS-273 > 100 µM | KM-20L2 > 100 µM | LXFL 529 > 100 µM | SNB-78 > 100 µM | XF498 > 100 µM

O=C(NC12CC3CCC1CC(C3)C2)[C@@H]1CCCN1C(=O)OCc1ccccc1 (some centres undefined)
inactive: DLD-1 56.9 µM | DMS-114 50.4 µM | DMS-273 49.8 µM | HOP-18 > 100 µM | KM-20L2 46.9 µM | LXFL 529 30.3 µM | SNB-78 49.9 µM | XF498 19.2 µM

NC(=O)NC1C(C(=O)O)N(Cc2ccccc2)C(=O)N1Cc1ccccc1 (centres undefined)
inactive: DLD-1 > 100 µM | DMS-114 > 100 µM | KM-20L2 > 100 µM | LXFL 529 > 100 µM | SNB-78 > 100 µM | XF498 > 100 µM

COc1ccc(OCC(=O)O)c2c1CCCC2=O
inactive: DLD-1 > 100 µM | DMS-114 > 100 µM | DMS-273 > 100 µM | LXFL 529 > 100 µM | RXF 631 > 100 µM | SNB-78 > 100 µM | XF498 3.52 µM

COC(=O)Cc1cc(O)c2c(c1O)C(=O)c1ccccc1C2=O
inactive: DLD-1 > 100 µM | DMS-114 > 100 µM | DMS-273 > 100 µM | HOP-18 > 100 µM | KM-20L2 > 100 µM | LXFL 529 71.4 µM | RXF 631 35.6 µM | SNB-78 37.6 µM

COC(=O)C12C3C4C5C3(C#N)C1C5(C(=O)OC)C42C(=O)N(C(C)C)C(C)C (centres undefined)
inactive: DLD-1 > 50.2 µM | DMS-114 > 100 µM | DMS-273 > 42.5 µM | HOP-18 > 100 µM | KM-20L2 > 100 µM | LXFL 529 > 92.9 µM | RXF 631 > 95.5 µM | SNB-78 > 100 µM | XF498 > 63.7 µM

CSc1nc(NC2OC(COC(C)=O)C(OC(C)=O)C(OC(C)=O)C2OC(C)=O)c(-c2csc(N)n2)c(=O)n1C (centres undefined)
inactive: DLD-1 44.8 µM | DMS-114 34.8 µM | HOP-18 16.6 µM | KM-20L2 > 100 µM | LXFL 529 31.7 µM | SNB-78 22.4 µM

CN(C)C(=S)/N=c1\ss/c(=N\C(=S)N(C)C)n1-c1ccc(Cl)c(Cl)c1
inactive: DMS-114 > 100 µM | DMS-273 > 100 µM | KM-20L2 > 100 µM | SNB-78 67.1 µM

COC(=O)C(=O)C(C#N)c1cccc2ccccc12 (centres undefined)
inactive: DLD-1 > 100 µM | DMS-114 > 100 µM | DMS-273 > 100 µM | HOP-18 > 100 µM | KM-20L2 > 100 µM | LXFL 529 > 100 µM | SNB-78 > 100 µM | XF498 > 100 µM

CC(=O)NC(Cc1ccccc1)C(=S)N1CCCC1 (centres undefined)
inactive: DLD-1 > 100 µM | DMS-114 > 100 µM | DMS-273 > 100 µM | HOP-18 15.3 µM | KM-20L2 > 100 µM | LXFL 529 > 100 µM | RXF 631 > 100 µM | SNB-78 > 100 µM | XF498 > 100 µM

NCCCCN(CCCN)/[N+]([O-])=N\O
inactive: DLD-1 > 100 µM | DMS-114 > 100 µM | DMS-273 > 100 µM | HOP-18 > 100 µM | KM-20L2 > 100 µM | LXFL 529 > 100 µM | SNB-78 > 100 µM

CN(C)[C@@H]1C(O)=C(C(=O)NCNc2nc3[nH]nnc3c(=O)[nH]2)C(=O)[C@@]2(O)C(O)=C3C(=O)c4c(O)cccc4[C@@](C)(O)[C@H]3C[C@@H]12
active: RXF 631 0.836 µM
inactive: DLD-1 29.7 µM | DMS-114 1.52 µM | DMS-273 1.29 µM | HOP-18 2.19 µM | KM-20L2 16.2 µM | LXFL 529 53.1 µM | SNB-78 1.81 µM | XF498 1.26 µM

O=C(c1ccccn1)c1nc(-c2ccc(Cl)c(Cl)c2)nc2ccc(Cl)cc12
inactive: DLD-1 99.3 µM | DMS-114 64.6 µM | DMS-273 32 µM | KM-20L2 > 100 µM | LXFL 529 46.6 µM | SNB-78 > 100 µM | XF498 20.8 µM

O=C1C=CC2(O)OCC3C=C4O[C@@H]5OC6(CCCCC6)O[C@@H]5C4[C@@H]2[C@@H]13 (some centres undefined)
inactive: DLD-1 22.4 µM | DMS-114 21.5 µM | DMS-273 50.4 µM | HOP-18 > 100 µM | KM-20L2 48.3 µM | LXFL 529 15.1 µM | SNB-78 24.4 µM | XF498 27.2 µM

COC(=O)/C=C/C1C2C3(CCC(C)C12C)OCCS3 (centres undefined)
inactive: DLD-1 > 100 µM | DMS-114 > 100 µM | DMS-273 > 100 µM | HOP-18 > 100 µM | KM-20L2 > 100 µM | LXFL 529 > 100 µM | SNB-78 > 100 µM | XF498 > 100 µM

CCN(CC)CCNc1ccc2nnn3c4ccccc4c(=O)c1c23
inactive: DLD-1 4.19 µM | DMS-114 6.55 µM | DMS-273 3.66 µM | KM-20L2 3.32 µM | LXFL 529 5.22 µM | RXF 631 2.88 µM | SNB-78 > 10 µM | XF498 3.49 µM
